Experimental data published in ChEMBL document CHEMBL5113503, “Synthesis and biological evaluation of 4-(4-aminophenyl)-6-methylisoxazolo[3,4-b] pyridin-3-amine covalent inhibitors as potential agents for the treatment of acute myeloid leukemia” (Bioorg Med Chem, 2022).

Experiments:
MV4-11 [1] = test: Induction of cell cycle arrest in human MV4-11 cells assessed as accumulation at G0/G1 phase at 0.5 uM measured after 24 hrs by flow cytometry (reference value: 64.29 %); format: functional
MV4-11 [2] = test: Induction of cell cycle arrest in human MV4-11 cells assessed as accumulation at G0/G1 phase at 2.5 uM measured after 24 hrs by flow cytometry (reference value: 64.29 %); format: functional
MOLM-13 = test: Antiproliferative activity against human MOLM-13 cells harboring FLT3-ITD mutant assessed as cell growth inhibition measured after 72 hrs by CCK8 assay; conditions: MOLM-13, 72 h
HL-60 = test: Antiproliferative activity against human HL-60 cells harboring wildtype FLT3 assessed as cell growth inhibition measured after 72 hrs by CCK8 assay; conditions: HL-60, 72 h
MV4-11 [3] = test: Induction of apoptosis in human MV4-11 cells assessed as necrotic cells at 0.1 uM measured after 48 hrs by Annexin V-FITC/PI double staining based flow cytometric analysis (reference value: 5.67 %); format: functional
MV4-11 [4] = test: Induction of apoptosis in human MV4-11 cells assessed as early apoptotic cells at 0.5 uM measured after 48 hrs by Annexin V-FITC/PI double staining based flow cytometric analysis (reference value: 2.04 %); format: functional
MV4-11 [5] = test: Induction of apoptosis in human MV4-11 cells assessed as early apoptotic cells at 0.1 uM measured after 48 hrs by Annexin V-FITC/PI double staining based flow cytometric analysis (reference value: 2.04 %); format: functional
[6] = Cytotoxicity against HUVEC cells assessed as cell growth inhibition measured after 72 hrs by CCK8 assay; format: toxicity, cell-based; conditions: human
MV4-11 [7] = test: Inhibition of ERK phosphorylation in human MV4-11 cells incubated for 12 hrs by Western blot analysis; format: cell-based; conditions: dose 0.1-2.5 µM, DDE = dose-dependent effect
MV4-11 [8] = test: Induction of apoptosis in human MV4-11 cells assessed as late apoptotic cells at 0.1 uM measured after 48 hrs by Annexin V-FITC/PI double staining based flow cytometric analysis (reference value: 12.03 %); format: functional
MV4-11 [9] = test: Induction of apoptosis in human MV4-11 cells assessed as viable cells at 0.5 uM measured after 48 hrs by Annexin V-FITC/PI double staining based flow cytometric analysis (reference value: 80.26 %); format: functional; conditions: read-out: Activity
HepG2 = test: Antiproliferative activity human HepG2 cells assessed as cell growth inhibition measured after 72 hrs by CCK8 assay; conditions: HepG2, 72 h
[10] = target: T1, Signal transducer and activator of transcription 5A (Homo sapiens) (UniProt P42229); test: Inhibition of STAT5 phosphorylation in human MV4-11 cells incubated for 12 hrs by Western blot analysis; format: cell-based; conditions: dose 0.1-2.5 µM, DDE = dose-dependent effect
T1 sequence (whole entry): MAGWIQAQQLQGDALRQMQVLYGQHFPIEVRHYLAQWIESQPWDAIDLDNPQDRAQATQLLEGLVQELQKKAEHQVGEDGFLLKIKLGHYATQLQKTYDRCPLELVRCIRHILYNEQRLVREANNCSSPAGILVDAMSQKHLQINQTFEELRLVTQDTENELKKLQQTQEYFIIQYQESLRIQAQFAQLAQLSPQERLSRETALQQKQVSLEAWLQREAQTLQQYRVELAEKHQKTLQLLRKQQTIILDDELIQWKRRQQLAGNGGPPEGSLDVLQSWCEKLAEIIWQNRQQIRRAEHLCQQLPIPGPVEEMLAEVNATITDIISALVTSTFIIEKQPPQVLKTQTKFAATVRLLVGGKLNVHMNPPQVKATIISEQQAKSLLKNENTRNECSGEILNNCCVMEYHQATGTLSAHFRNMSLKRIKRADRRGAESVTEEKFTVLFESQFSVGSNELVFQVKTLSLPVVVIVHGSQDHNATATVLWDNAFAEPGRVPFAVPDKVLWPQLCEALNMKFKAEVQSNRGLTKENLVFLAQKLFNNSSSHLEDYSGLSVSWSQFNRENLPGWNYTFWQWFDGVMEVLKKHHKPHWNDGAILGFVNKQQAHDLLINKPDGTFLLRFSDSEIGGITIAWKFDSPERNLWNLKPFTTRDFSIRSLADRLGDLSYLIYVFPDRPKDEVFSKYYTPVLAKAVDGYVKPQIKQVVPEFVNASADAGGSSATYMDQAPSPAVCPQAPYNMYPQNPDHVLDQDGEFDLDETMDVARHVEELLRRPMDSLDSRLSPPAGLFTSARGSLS

MV4-11 [11] = test: Induction of apoptosis in human MV4-11 cells assessed as necrotic cells at 2.5 uM measured after 48 hrs by Annexin V-FITC/PI double staining based flow cytometric analysis (reference value: 5.67 %); format: functional
MV4-11 [12] = test: Induction of apoptosis in human MV4-11 cells assessed as late apoptotic cells at 0.5 uM measured after 48 hrs by Annexin V-FITC/PI double staining based flow cytometric analysis (reference value: 12.03 %); format: functional
MV4-11 [13] = test: Induction of cell cycle arrest in human MV4-11 cells assessed as accumulation at G0/G1 phase at 0.1 uM measured after 24 hrs by flow cytometry (reference value: 64.29 %); format: functional
MV4-11 [14] = test: Induction of apoptosis in human MV4-11 cells assessed as necrotic cells at 0.5 uM measured after 48 hrs by Annexin V-FITC/PI double staining based flow cytometric analysis (reference value: 5.67 %); format: functional
MV4-11 [15] = test: Induction of apoptosis in human MV4-11 cells assessed as late apoptotic cells at 2.5 uM measured after 48 hrs by Annexin V-FITC/PI double staining based flow cytometric analysis (reference value: 12.03 %); format: functional
[16] = target: Receptor-type tyrosine-protein kinase FLT3 (Homo sapiens) (UniProt P36888); test: Inhibition of FLT3 phosphorylation in human MV4-11 cells incubated for 12 hrs by Western blot analysis; format: cell-based; conditions: dose 0.1-2.5 µM, DDE = dose-dependent effect
Receptor-type tyrosine-protein kinase FLT3 (Homo sapiens), sequence (P36888 whole entry): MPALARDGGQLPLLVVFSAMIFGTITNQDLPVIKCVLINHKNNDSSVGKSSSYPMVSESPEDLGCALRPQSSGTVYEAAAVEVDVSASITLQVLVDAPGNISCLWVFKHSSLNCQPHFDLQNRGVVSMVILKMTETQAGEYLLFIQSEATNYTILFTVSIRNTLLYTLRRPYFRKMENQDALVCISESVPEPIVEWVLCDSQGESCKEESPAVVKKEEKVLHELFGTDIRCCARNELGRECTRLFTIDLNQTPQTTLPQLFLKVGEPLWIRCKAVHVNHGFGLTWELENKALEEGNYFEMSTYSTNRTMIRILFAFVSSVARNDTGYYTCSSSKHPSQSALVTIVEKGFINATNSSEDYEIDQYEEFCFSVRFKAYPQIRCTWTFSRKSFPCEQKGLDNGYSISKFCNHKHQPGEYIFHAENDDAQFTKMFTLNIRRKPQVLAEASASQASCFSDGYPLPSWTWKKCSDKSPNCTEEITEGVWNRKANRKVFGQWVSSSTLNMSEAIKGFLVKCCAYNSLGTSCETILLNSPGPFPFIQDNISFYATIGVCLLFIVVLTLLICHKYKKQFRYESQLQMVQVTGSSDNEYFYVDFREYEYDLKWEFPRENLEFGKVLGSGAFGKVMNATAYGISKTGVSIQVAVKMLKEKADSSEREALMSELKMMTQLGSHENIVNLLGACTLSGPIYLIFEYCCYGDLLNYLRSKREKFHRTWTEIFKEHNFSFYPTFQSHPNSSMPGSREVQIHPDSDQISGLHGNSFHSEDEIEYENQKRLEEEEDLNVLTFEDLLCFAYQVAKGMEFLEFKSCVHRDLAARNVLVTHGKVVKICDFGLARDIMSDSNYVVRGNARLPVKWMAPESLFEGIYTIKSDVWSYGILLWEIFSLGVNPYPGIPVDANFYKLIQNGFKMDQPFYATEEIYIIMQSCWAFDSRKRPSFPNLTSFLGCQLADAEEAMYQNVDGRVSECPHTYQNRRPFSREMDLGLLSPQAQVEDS

MV4-11 [17] = test: Induction of apoptosis in human MV4-11 cells assessed as viable cells at 0.1 uM measured after 48 hrs by Annexin V-FITC/PI double staining based flow cytometric analysis (reference value: 80.26 %); format: functional; conditions: read-out: Activity
A549 = test: Antiproliferative activity human A549 cells assessed as cell growth inhibition measured after 72 hrs by CCK8 assay; conditions: A549, 72 h
MV4-11 [18] = test: Induction of apoptosis in human MV4-11 cells assessed as viable cells at 2.5 uM measured after 48 hrs by Annexin V-FITC/PI double staining based flow cytometric analysis (reference value: 80.26 %); format: functional; conditions: read-out: Activity
MV4-11 [19] = test: Induction of apoptosis in human MV4-11 cells assessed as early apoptotic cells at 2.5 uM measured after 48 hrs by Annexin V-FITC/PI double staining based flow cytometric analysis (reference value: 2.04 %); format: functional
[20] = Cytotoxicity against human K562 cells assessed as cell growth inhibition measured after 72 hrs by CCK8 assay; format: toxicity, cell-based
[21] = target: Serine/threonine-protein kinase AKT (Homo sapiens) (UniProt P31751+Q9Y243+P31749); test: Inhibition of AKT phosphorylation in human MV4-11 cells incubated for 12 hrs by Western blot analysis; format: cell-based; conditions: dose 0.1-2.5 µM, DDE = dose-dependent effect
Serine/threonine-protein kinase AKT (Homo sapiens), sequence (P31749 whole entry, looked up): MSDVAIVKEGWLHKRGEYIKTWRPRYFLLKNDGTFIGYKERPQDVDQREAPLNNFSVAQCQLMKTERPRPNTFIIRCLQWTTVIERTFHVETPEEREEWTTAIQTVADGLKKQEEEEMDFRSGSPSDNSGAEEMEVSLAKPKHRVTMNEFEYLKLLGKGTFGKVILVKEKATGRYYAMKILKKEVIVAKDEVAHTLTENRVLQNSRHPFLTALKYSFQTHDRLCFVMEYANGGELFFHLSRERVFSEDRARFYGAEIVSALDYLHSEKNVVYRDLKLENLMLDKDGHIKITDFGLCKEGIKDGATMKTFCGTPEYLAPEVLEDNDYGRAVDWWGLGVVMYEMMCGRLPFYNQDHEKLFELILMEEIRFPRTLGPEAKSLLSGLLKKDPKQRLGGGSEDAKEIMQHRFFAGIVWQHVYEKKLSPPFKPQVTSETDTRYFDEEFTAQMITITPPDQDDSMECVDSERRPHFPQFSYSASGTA
Serine/threonine-protein kinase AKT (Homo sapiens), sequence (P31751 whole entry, looked up): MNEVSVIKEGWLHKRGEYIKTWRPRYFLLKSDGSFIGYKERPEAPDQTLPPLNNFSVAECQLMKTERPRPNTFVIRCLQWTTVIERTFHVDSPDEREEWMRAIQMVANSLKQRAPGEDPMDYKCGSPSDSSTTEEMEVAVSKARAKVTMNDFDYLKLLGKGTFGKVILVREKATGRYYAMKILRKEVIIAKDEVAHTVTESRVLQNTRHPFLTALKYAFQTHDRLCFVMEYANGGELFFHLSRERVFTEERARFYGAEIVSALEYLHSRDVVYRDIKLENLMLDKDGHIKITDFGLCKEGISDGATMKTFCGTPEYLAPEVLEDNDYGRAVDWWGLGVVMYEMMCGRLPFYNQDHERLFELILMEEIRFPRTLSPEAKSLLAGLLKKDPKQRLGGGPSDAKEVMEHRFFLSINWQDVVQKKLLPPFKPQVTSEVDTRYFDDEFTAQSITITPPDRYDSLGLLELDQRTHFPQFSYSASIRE
Serine/threonine-protein kinase AKT (Homo sapiens), sequence (Q9Y243 whole entry, looked up): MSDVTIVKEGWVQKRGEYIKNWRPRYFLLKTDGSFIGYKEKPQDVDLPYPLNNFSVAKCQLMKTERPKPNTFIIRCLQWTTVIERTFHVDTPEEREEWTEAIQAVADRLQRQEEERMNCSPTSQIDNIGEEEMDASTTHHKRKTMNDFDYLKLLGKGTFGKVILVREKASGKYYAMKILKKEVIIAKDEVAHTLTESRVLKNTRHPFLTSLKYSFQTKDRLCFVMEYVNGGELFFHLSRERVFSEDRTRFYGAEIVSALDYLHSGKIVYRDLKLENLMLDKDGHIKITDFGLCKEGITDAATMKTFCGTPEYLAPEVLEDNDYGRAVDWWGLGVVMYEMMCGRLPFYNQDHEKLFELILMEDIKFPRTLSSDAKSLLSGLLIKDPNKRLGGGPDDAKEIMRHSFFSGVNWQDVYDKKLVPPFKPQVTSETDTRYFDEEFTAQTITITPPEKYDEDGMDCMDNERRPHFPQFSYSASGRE

`C=CC(=O)Nc1ccc(NC(=O)Nc2ccc(-c3cc(C)nc4noc(N)c34)cc2)cc1` showed an Activity (MV4-11 [1]) of 71.37%, an Activity (MV4-11 [2]) of 83% and an IC50 (MOLM-13) of 507 nM. It also gave an IC50 (HL-60) of over 10 µM, an Activity (MV4-11 [3]) of 4.51% and an Activity (MV4-11 [4]) of 2.43%. The Activity (MV4-11 [5]) was 1.83%, the IC50 at 72 h [6] was over 10 µM and the inhibition (MV4-11 [7]) was “Dde”. It also gave an Activity (MV4-11 [8]) of 11.88%, a viability at 0.5 µM (MV4-11 [9]) of 77.5% and an IC50 (HepG2) of over 10 µM. For the same compound, the inhibition [10] was “Dde”, the Activity (MV4-11 [11]) was 9.56% and the Activity (MV4-11 [12]) was 14.58%. It also gave an Activity (MV4-11 [13]) of 67.6%, an Activity (MV4-11 [14]) of 5.47% and an Activity (MV4-11 [15]) of 35.01%. For the same compound, the inhibition [16] was “Dde”, the viability at 0.1 µM (MV4-11 [17]) was 81.8% and the IC50 (A549) was over 10 µM. It also gave a viability at 2.5 µM (MV4-11 [18]) of 53.9%, an Activity (MV4-11 [19]) of 1.5% and an IC50 at 72 h [20] of over 10 µM. For the same compound, the inhibition [21] was “Dde”.
